From patent publication US20040152119A1, “Solid phase sequencing” (priority 2003, published 2004)

System: cloned DNA polymerase I genetically engineered to eliminate 3′-5′ exonuclease activity, 5′-3′exonuclease activity and discrimination against dideoxynucleotides
Test: Nucleic acid sequence detection by polymerase incorporation of gamma-phosphate-labeled dideoxynucleotide in the presence of shrimp alkaline phosphatase (fluorescence)
Assay type: biochemical
Settings: 23° C.; for dye emission with Primer: Template 1: next template nucleotide dC (SEQ ID NO: 2); for dye emission with Primer: Template 2: next template nucleotide dT (SEQ ID NO: 3)
Experimental: Reactions were assembled at room temperature (23° C.) using the dideoxynucleotide of Example (1). Reactions contained primer template combinations having a single oligonucleotide primer (represented by SEQ ID NO: 1) annealed to one of two different oligonucleotide templates with either a dC or a dT as the next template nucleotide adjacent the 3′ terminus of the primer, corresponding to SEQ ID NO: 2 and SEQ ID NO: 3, respectively.
Referring now to FIG. 1, for template 1 (SEQ ID NO: 2) in the present example, DNA polymerase would be expected to extend the primer with labeled ddGTP. Similarly, for template 2 (SEQ ID NO: 3) in FIG. 1, DNA polymerase would be expected to extend the primer with ddATP, but not with labeled ddGTP.
Reaction conditions: A 70 μl reaction containing 25 mM Tris, pH 8.0, 5% glycerol 5 mM MgC12, 0.5 mM beta-mercaptoethanol, 0.01% tween-20, 0.25 units shrimp alkaline phosphatase, 100 nM primer annealed to template (the next template nucleotide is either dCMP or dTMP, as indicated), and 2 μM ddGTP-CF3-Coumarin was assembled in a quartz fluorescence ultra-microcuvet in a LS-55 Luminescence Spectrometer (Perkin Elmer), operated in time drive mode. Excitation and emission wavelengths are 390 nm and 500 nm respectively. Slit widths were 5 nm for excitation slits, 15 nm for emission slits. The reaction was initiated by the addition of 0.35 μl (11 units) of a cloned DNA polymerase I genetically engineered to eliminate 3′-5′ exonuclease activity, 5′-3′exonuclease activity and discrimination against dideoxynucleotides and 0.25 mM MnCl2. […]

[1] = 2 μM ddATP-CN-Coumarin, excitation 410 nm, emission 450 nm, FIG. 2
[2] = 2 μM ddGTP-CF3-Coumarin, excitation 390 nm, emission 500 nm, FIG. 1

SMILES | dye emission with Primer: Template 1 [1] | dye emission with Primer: Template 2 [1] | dye emission with Primer: Template 1 [2] | dye emission with Primer: Template 2 [2]
N#Cc1cc2ccc(OP(=O)(O)OP(=O)(O)OP(=O)(O)OC[C@@H]3CC[C@H](n4cnc5c(N)ncnc54)O3)cc2oc1=O [gamma labeled ddATP, γ-(3-Cyanocoumarinyl)ddATP] | No detectable dye emission | dye emission was detected | – | –
Nc1nc2c(ncn2[C@H]2CC[C@@H](COP(=O)(O)OP(=O)(O)OP(=O)(O)Oc3ccc4c(C(F)(F)F)cc(=O)oc4c3)O2)c(=O)[nH]1 [gamma labeled ddGTP, γ-(4-trifluoromethylcoumarinyl)ddGTP] | – | – | dye emission was detected | No detectable dye emission
